24 compounds from US20100286215A1, “BIS-AROMATIC COMPOUNDS USEFUL IN THE TREATMENT OF INFLAMMATION” (BIS-AROMATIC COMPOUNDS USEFUL IN THE TREATMENT OF …, priority 2007, published 2010) can be followed below.

The first assay concerns the target T1, Recombinant human LTC4 synthase (Homo sapiens, UniProt Q16873).
T1 construct: made in house; host or cells: Pichia pastoris ('Piccia pastoralis' [sic])
T1 sequence (Q16873 1-150): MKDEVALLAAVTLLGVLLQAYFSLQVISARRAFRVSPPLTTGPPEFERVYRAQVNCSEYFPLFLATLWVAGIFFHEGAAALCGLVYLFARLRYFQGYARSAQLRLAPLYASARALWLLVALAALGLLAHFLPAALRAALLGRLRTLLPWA
The assay can be described thus: LTC4 synthase assay (conversion of LTA4 methyl ester to LTC4 methyl ester, HPLC). It is filed as biochemical.
Details: not given
How it is done: In the assay LTC4 synthase catalyses the reaction where the substrate LTA4 methyl ester is converted to LTC4 methyl ester. Recombinant human LTC4 synthase is expressed in Piccia pastoralis and the purified enzyme is dissolved in 25 mM Tris-buffer pH 7.8 and stored at −20° C. The assay is performed in phosphate buffered saline (PBS) pH 7.4, supplemented with 5 mM glutathione (GSH). The reaction is terminated by addition of acetonitrile/MeOH/acetic acid (50/50/1). The assay is performed at rt in 96-well plates. Analysis of the formed LTC4 methyl ester is performed with reversed phase HPLC (Waters 2795 utilizing an Onyx Monolithic C18 column). The mobile phase consists of acetonitrile/MeOH/H2O (32.5/30/37.5) with 1% acetic acid pH adjusted with NH3 to pH 5.6, and absorbance measured at 280 nm with a Waters 2487 UV-detector.
The following is added chronologically to each well: • 1. 50 μl assay buffer, PBS with 5 mM GSH. • 2. 0.5 μl inhibitor in DMSO. • 3. 2 μl LTC4 synthase in PBS. The total protein concentration in this solution is 0.025 mg/ml. Incubation of the plate at room temperature for 10 minutes. • 4. 0.5 μl LTA4 methyl ester. Incubation of the plate at rt for 1 min. • 5. 50 μl stop solution. 80 μl of the incubation mixture is analysed with HPLC.
A word on the IC50: it is the concentration needed to halve the response being measured. Turning to `CCCCOc1ccc(S(=O)(=O)Nc2ccc(C(=O)c3ccc(NC(=O)c4ccc(OC(C)C)cc4)c(C(=O)O)c3)cc2C(=O)O)cc1` [Example 13, 5-[(3-Carboxy-4-(4-n-butoxy-benzenesulfonylamino)benzoyl)]-2-(4-isopropoxybenzoylamino)-benzoic acid], the IC50 turned out to be 86 nM.

Regarding `O=C(Nc1ccc(C(=O)c2ccc(NC(=O)c3ccc(C(F)(F)F)cc3F)c(C(=O)O)c2)cc1C(=O)O)c1ccc(C(F)(F)F)cc1` [Example 8, 2-(2-fluoro-4-(trifluoromethyl)benzamido)-5-(4-(4-(tri-fluoromethyl)benzamido)-3-carboxyphenylcarbonyl)-benzoic acid], the IC50 turned out to be 73 nM.

The same assay, now with this note: inhibitor concentration 10 μM.
Regarding `CCCCOc1ccc(S(=O)(=O)Nc2ccc(C(=O)c3ccc(NS(=O)(=O)c4ccc(OCCCC)cc4)c(C(=O)O)c3)cc2C(=O)O)cc1` [Example 7], the “Percantage Inhibition at 10 μM (unless specified otherwise)” value stood at 97%.

The assay is the same for the next values; noted with them: inhibitor concentration 10 μM; read-out: Percantage Inhibition at 10 μM (unless specified otherwise).
In general, inhibition refers to the relative decrease from the control value, in per cent. Regarding `CCCCOc1ccc(S(=O)(=O)Nc2ccc(C(=O)c3ccc(NC(=O)c4cccc(Cl)c4Cl)c(C(=O)O)c3)cc2C(=O)O)cc1` [Example 12, 5-[(3-Carboxy-4-(4-n-butoxy-benzenesulfonylamino)benzoyl)]-2-(2,3-dichlorobenzoylamino)benzoic acid], the inhibition at 10 µM amounted to 98%.

Regarding `CN(c1ccc(Cl)cc1)c1ccc(C(=O)c2ccc(Nc3cccc(C(F)(F)F)c3)c(C(=O)O)c2)cc1` [9:1, 5-{4-[(4-Chloro-phenyl)-methyl-amino]-benzoyl}-2-(3-trifluoromethyl-phenylamino)-benzoic acid], the inhibition at 10 µM was 90%.

For `CCCCOc1ccc(S(=O)(=O)Nc2ccc(C(=O)c3ccc(N(C)c4ccc(F)c(F)c4)c(C(=O)O)c3)cc2)cc1` [Example 17, 5-(4-(4-butoxyphenylsulfonamido)benzoyl)-2-((3,4-di-fluorophenyl)(methyl)amino)benzoic acid], the inhibition at 10 µM came out at 99%.

For `CCCCOc1ccc(S(=O)(=O)Nc2ccc(C(=O)c3ccc(NC(=O)c4ccc(OC(C)C)cc4)c(C(=O)O)c3)cc2C(=O)O)cc1` [Example 13, 5-[(3-Carboxy-4-(4-n-butoxy-benzenesulfonylamino)benzoyl)]-2-(4-isopropoxybenzoylamino)-benzoic acid], the inhibition at 10 µM was 100%.

Take `CN(c1ccc(Cl)cc1)c1ccc(C(=O)c2ccc(Oc3ccccc3Cl)c(C(=O)O)c2)cc1` [6:4, 2-(2-Chloro-phenoxy)-5-{4-[(4-chloro-phenyl)-methyl-amino]-benzoyl}-benzoic acid]: the inhibition at 10 µM was 97%.

As to `O=C(c1ccc(Oc2ccc(C(F)(F)F)cc2)cc1)c1ccc(Oc2ccc(F)c(F)c2)c(C(=O)O)c1` [8:5, 2-(3,4-Difluoro-phenoxy)-5-[4-(4-trifluoromethyl-phenoxy)-benzoyl]-benzoic acid], the inhibition at 10 µM came to 96%.

With `CN(c1ccc(Cl)cc1)c1ccc(C(=O)c2ccc(Oc3ccccc3OC(F)(F)C(F)F)c(C(=O)O)c2)cc1` [6:8, 5-{4-[(4-Chloro-phenyl)-methyl-amino]-benzoyl}-2-[2-(1,1,2,2-tetrafluoro-ethoxy)-phenoxy]-benzoic acid], the inhibition at 10 µM stood at 98%.

Regarding `O=C(c1ccc(Nc2ccc(Cl)cc2)cc1)c1ccc(Oc2ccc(F)c(F)c2)c(C(=O)O)c1` [8:3, 5-[4-(4-Chloro-phenylamino)-benzoyl]-2-(3,4-difluoro-phenoxy)-benzoic acid], the inhibition at 10 µM came out at 100%.

As to `O=C(Nc1ccc(C(=O)c2ccc(NS(=O)(=O)c3ccc(Cl)cc3)c(C(=O)O)c2)cc1)c1cccc(Cl)c1` [7:2, 2-(4-Chloro-benzenesulfonylamino)-5-[4-(3-chloro-benzoylamino)-benzoyl]-benzoic acid], the inhibition at 10 µM came out at 100%.

As for `O=C(c1ccc(Nc2ccc(F)c(F)c2)c(C(=O)O)c1)c1ccc(Nc2ccc(F)c(F)c2)c(C(=O)O)c1` [Example 1, 2-(3,4-difluorophenylamino)-5-((4-(3,4-difluorophenylamino)-3-carboxyphenylcarbonyl))benzoic acid], the inhibition at 10 µM came to 93%.

With `O=C(Nc1ccc(C(=O)c2ccc(NC(=O)c3ccc(C(F)(F)F)cc3F)c(C(=O)O)c2)cc1C(=O)O)c1ccc(C(F)(F)F)cc1` [Example 8, 2-(2-fluoro-4-(trifluoromethyl)benzamido)-5-(4-(4-(tri-fluoromethyl)benzamido)-3-carboxyphenylcarbonyl)-benzoic acid], the inhibition at 10 µM worked out at 100%.

For `O=C(c1ccc(NC(=O)c2cc(Cl)ccc2Cl)cc1)c1ccc(Nc2ccc(F)c(F)c2)c(C(=O)O)c1` [5:10, 5-[4-(2,5-Dichloro-benzoylamino)-benzoyl]-2-(3,4-difluoro-phenylamino)-benzoic acid], the inhibition at 10 µM came out at 98%.

Consider `O=C(c1ccc(Nc2ccc(Cl)cc2)c(C(=O)O)c1)c1ccc(Nc2ccc(Cl)cc2)c(C(=O)O)c1` [11:1, 5-{3-Carboxy-[4-(4-chloro-phenylamino)]-benzoyl}-2-(4-chloro-phenylamino)-benzoic acid], for which the inhibition at 10 µM was found to be 97%.

Turning to `CN(c1ccc(Cl)cc1)c1ccc(C(=O)c2ccc(Oc3cccc(Cl)c3)c(C(=O)O)c2)cc1` [6:2, 2-(3-Chloro-phenoxy)-5-{4-[(4-chloro-phenyl)-methyl-amino]-benzoyl}-benzoic acid], the inhibition at 10 µM was 96%.

On to `CN(c1ccc(Cl)cc1)c1ccc(C(=O)c2ccc(Oc3ccc(F)c(F)c3)c(C(=O)O)c2)cc1` [6:3, 5-{4-[(4-Chloro-phenyl)-methyl-amino]-benzoyl}-2-(3,4-difluoro-phenoxy)-benzoic acid], for which the inhibition at 10 µM worked out at 90%.

For the compound `CN(c1ccc(Cl)cc1)c1ccc(C(=O)c2ccc(N(C)c3ccc(Cl)cc3)c(C(=O)O)c2)cc1C(=O)O` [11:2, 5-{3-Carboxy-4-[(4-chlorophenyl)-methyl-amino]benzoyl}-2-[(4-chloro-phenyl)-methyl-amino]benzoic acid], the inhibition at 10 µM stood at 82%.

Turning to `O=C(Nc1ccc(C(F)(F)F)cc1)Nc1ccc(C(=O)c2ccc(NC(=O)Nc3ccc(C(F)(F)F)cc3)c(C(=O)O)c2)cc1C(=O)O` [Example 6, 2-[3-(4-trifluoromethylphenyl)-ureido]-5-{3-carboxy-4-[3-(4-trifluoromethylphenyl)ureido]-benzoyl}benzoic acid], the inhibition at 10 µM was 95%.

With `O=C(Nc1ccc(C(=O)c2ccc(Nc3ccc(F)c(F)c3)c(C(=O)O)c2)cc1)Nc1cccc(Cl)c1` [5:1, 5-{4-[3-(3-Chloro-phenyl)-ureido]-benzoyl}-2-(3,4-difluoro-phenylamino)-benzoic acid], the inhibition at 10 µM is 95%.

Regarding `O=C(c1ccc(NS(=O)(=O)c2ccc(Cl)cc2)cc1)c1ccc(NC(=O)c2cccc(C(F)(F)F)c2F)c(C(=O)O)c1` [7:9, 5-[4-(4-Chloro-benzenesulfonylamino)-benzoyl]-2-(2-fluoro-3-trifluoromethyl-benzoylamino)-benzoic acid], the inhibition at 10 µM worked out at 99%.

In the case of `CCCCCCC(=O)Nc1ccc(C(=O)c2ccc(NC(=O)c3ccc(Cl)cc3Cl)c(C(=O)O)c2)cc1` [14:2, 2-(2,4-Dichloro-benzoylamino)-5-(4-heptanoylamino-benzoyl)-benzoic acid], the inhibition at 10 µM is 100%.

Turning to `O=C(c1ccc(Nc2cccc(Cl)c2)cc1)c1ccc(Oc2ccc(F)c(F)c2)c(C(=O)O)c1` [8:2, 5-[4-(3-Chloro-phenylamino)-benzoyl]-2-(3,4-difluoro-phenoxy)-benzoic acid], the inhibition at 10 µM turned out to be 98%.

Regarding `CCOc1ccc(NC(=O)Nc2ccc(C(=O)c3ccc(Nc4ccc(F)c(F)c4)c(C(=O)O)c3)cc2)cc1` [5:2, 2-(3,4-Difluoro-phenylamino)-5-{4-[3-(4-ethoxy-phenyl)-ureido]-benzoyl}-benzoic acid], the inhibition at 10 µM was 100%.

For `CN(c1ccc(Cl)cc1)c1ccc(C(=O)c2ccc(Oc3cccc(Cl)c3Cl)c(C(=O)O)c2)cc1` [6:9, 5-{4-[(4-Chloro-phenyl)-methyl-amino]-benzoyl}-2-(2,3-dichloro-phenoxy)-benzoic acid], the inhibition at 10 µM was determined as 66%.
